Test results as given in US5882851A, “Cytochrome P-450 monooxygenases” (Novartis Finance Corporation, priority 1993, dated 1999).
Converted amounts (≈) assume the structure as drawn. Like-named read-outs stand apart in the source and are kept apart here. Blank lines part the entries; values can stand above or below the compound they belong to.

Assays:
cytochrome P-450TYR = biological target: T1, cytochrome P-450TYR (Sorghum bicolor, UniProt Q43135); test: Substrate binding spectra of isolated sorghum cytochrome P-450TYR (difference spectrum A390-420)
T1 construct: from tissue; host or cells: microsomes of etiolated Sorghum bicolor seedlings, solubilised and purified by dye columns
T1 sequence (Q43135 1-558): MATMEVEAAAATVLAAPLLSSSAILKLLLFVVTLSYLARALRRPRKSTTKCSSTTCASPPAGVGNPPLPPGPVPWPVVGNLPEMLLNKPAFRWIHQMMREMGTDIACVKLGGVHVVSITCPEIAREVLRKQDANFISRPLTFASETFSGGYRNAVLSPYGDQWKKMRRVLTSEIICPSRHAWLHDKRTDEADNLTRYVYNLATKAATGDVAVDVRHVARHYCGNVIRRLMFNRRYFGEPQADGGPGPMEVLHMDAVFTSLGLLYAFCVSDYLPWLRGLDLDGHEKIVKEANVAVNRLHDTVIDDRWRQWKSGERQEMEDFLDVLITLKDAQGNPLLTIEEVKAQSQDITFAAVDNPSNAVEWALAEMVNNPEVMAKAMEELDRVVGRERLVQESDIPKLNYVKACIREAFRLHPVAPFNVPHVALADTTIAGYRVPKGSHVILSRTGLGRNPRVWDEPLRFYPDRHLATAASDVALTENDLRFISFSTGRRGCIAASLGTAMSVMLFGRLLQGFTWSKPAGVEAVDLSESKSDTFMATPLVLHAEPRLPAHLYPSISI
Experimental: Cytochrome P-450 substrate binding spectra are recorded with stepwise increased substrate concentration until saturating conditions are reached.
Cytochrome P-450TYR in the oxidized state has a strong absorption peak at 420 nm, representing the low spin state of the iron of the heme group. The binding of a ligand to the heme group shifts the absorption maximum by changing the spin state of the iron. […] The following experimental procedure is used to obtain the substrate binding spectrum: two identical cuvettes containing a buffered solution of the isolated cytochrome P-450 are prepared. The substrate of the enzyme is added to the sample cuvette whereas the same volume of buffer is added to the other cuvette. The difference spectrum is then recorded in an SLM-Aminco DW2c spectrophotometer. The absorption difference, A390-420, is proportional to the concentration of cytochrome P-450TYR with a bound substrate at its active site. If a saturating concentration of substrate is added to the sample cuvette, the absorption difference is proportional to the concentration of the substrate specific cytochrome P-450 in the cuvettes. The saturating concentration of the substrate is determined by titrating the cytochrome P-450 sample with increasing amounts of substrate and monitoring A390-420.
If a cytochrome P-450 sample can be saturated with two different substrates, there may be two different cytochrome P-450 enzymes in the sample, or there may be one cytochrome P-450 enzyme able to bind to both substrates. To discriminate between these possibilities, saturating amounts of the two substrates are added sequentially and the A390-420absorption change is monitored. If, independent of the order of addition, the addition of the second sample gives rise to an increased A390-420value compared to the value after the addition of the first substrate, the two substrates are bound by different enzymes. If A390-420 remains unchanged upon addition of the second substrate, independent of the order of addition, both substrates bind to the same active site, i.e. to the same cytochrome P-450 enzyme.

[1] = biological target: T2, P-450TYR expressed in E. coli (Sorghum bicolor, UniProt Q43135); test: Substrate binding spectra of P-450TYR expressed in E. coli
T2 construct: in which the 35 N-terminal amino acids are replaced by the nine N-terminal amino acids from bovine 17α hydroxylase; nine N-terminal amino acids from bovine 17alpha-hydroxylase (replace the 35 N-terminal residues) (N); made in house; host or cells: E. coli JM109, vector pSP19g10L
Source text: Cytochrome P-450TYR in the oxidized state has a strong absorption peak at 420 nm, representing the low spin state of the iron of the heme group. The binding of a ligand to the heme group shifts the absorption maximum by changing the spin state of the iron. Binding of tyrosine at the catalytic site of cytochrome P-450TYR induces a change of the spin state of the oxidized iron from low to high spin, and thereby changes the absorption maximum from 420 nm to 390 nm producing a type I spectrum (Jefcoate, Methods in Enzymology 52:258-279, 1978). The following experimental procedure is used to obtain the substrate binding spectrum: two identical cuvettes containing a buffered solution of the isolated cytochrome P-450 are prepared. The substrate of the enzyme is added to the sample cuvette whereas the same volume of buffer is added to the other cuvette. The difference spectrum is then recorded in an SLM-Aminco DW2c spectrophotometer. The absorption difference, A390-420, is proportional to the concentration of cytochrome P-450TYR with a bound substrate at its active site. If a saturating concentration of substrate is added to the sample cuvette, the absorption difference is proportional to the concentration of the substrate specific cytochrome P-450 in the cuvettes. The saturating concentration of the substrate is determined by titrating the cytochrome P-450 sample with increasing amounts of substrate and monitoring A390-420.
A modified cytocrome P-450TYR, in which the 35 N-terminal amino acids are replaced by the nine N-terminal amino acids from bovine 17α hydroxylase is introduced into the expression vector pSP19g10L which can be obtained from Dr. Henry Barnes (La Jolla, Calif.). This plasmid contains the lac Z promoter fused with the known short leader sequence (g10L) of gene 10 from bacteriophage T7 (Olin et al, 1988). A construct containing the N-terminal amino acids from bovine 17α hydroxylase and a truncated form of the P-450TYR gene is designed using PCR mutagenesis: Oligonucleotide TYROL 1d (5'-CGGGATCCATATGGCTCTGTTATTAGCAGTTTTTCTGTCGTACCTGGCCCG-3'; SEQ ID NO 23) containing a 5' mutant cDNA sequence as well as a BamHI and NdeI restriction site is used together with oligonucleotide TYROL 3 comprising the sequence surrounding the unique BamHI restriction site downstream of the ATG start codon of the cDNA coding for P-450TYR to amplify a modified N-terminal sequence of P-450TYR. The amplification product is cut with NdeI and BamHI restriction enzymes. To introduce a HindIII site immediately downstream of the stop codon of the P-450TYR gene, oligonucleotides TYROL 2 and TYROL 4 are used in a polymerase chain reaction to obtain a C-terminal fragment of the P-450TYR gene comprising a HindIII restriction site immediately downstream of the stop codon. The amplification product is cut with PstI and HindIII restriction enzymes. The complete expression plasmid is constructed by simultaneous ligation of the N-terminal NdeI/BamHI fragment, the BamHI/PstI fragment of the P-450TYR gene and the C-terminal PstI/HindIII fragment into NdeI/HindIII cleaved pSP19g10L vector DNA. The expression vector obtained is transformed into E. coli strain JM109. Transformed E. coli produce 300 nmol to 500 nmol cytochrome P-450TYR per liter cell culture upon growth at 28° C. in the presence of 1 mM isopropyl-β-D-thiogalactopyranoside and at 125 rpm. Expression levels as high as 900 nmol per liter, equivalent to 55 mg P-450TYR per liter, have been obtained. […]

[2] = tested on: Western Corn Root Worm (WCRW); test: Larval mortality of Western Corn Root Worm on diet; type: in vivo, Diabrotica virgifera virgifera
Source text: Insects or insect larvae are fed on a diet containing added cyanogenic glycoside, a diet containing added cyanogenic glycoside, and callus, or a diet supplemented with the supernatant of callus ground-up in the presence of the cyanogenic glycoside. Mortality is compared to the mortality of insects or insect larvae fed on the diet only.
WCRW larvae are fed on a diet with added amygdalin, a diet with added amygdalin and Black Mexican Sweet (BMS) callus or on a diet supplemented with the supernatant of BMS-callus ground-up in the presence of amygdalin. Larval mortality is compared to the mortality of larvae fed on the diet only.
The activity of dhurrin on larval mortality of WCRW was determined as described for amygdalin in example 12.

glucosinolate production = test: Induction of glucosinolate production in Tropaeolum majus; type: in vivo
Experimental: Seeds of Tropaeolum majus L. cv Empress of India (Dansk Havefroforsyning, Kolding, DK) are allowed to imbibe and germinate in complete darkness for one week at 25° C. In vivo biosynthesis experiments are performed wherein 1 μCi of the tracer ^14 C-labelled phenylalanine is administered to excised dark-grown seedlings for 24 hours followed by boiling of the plant material in 90% methanol and analysis of the extracts by HPLC as described by Lykkesfeldt and Moller, 1993. Prior to administration of the tracer to the excised seedling or leaf, the intact plant is subjected to a potential inducer for 24 hours.

[3] = tested on: biosynthesis of glucosinolates; test: In vivo effect of cytochrome P450 inhibitors on glucosinolate in etiolated tropaeolum seedlings; conditions: 1 mM inhibitor; for effect on glucosinolate: radioactively labelled phenylalanine, etiolated tropaeolum seedlings
[4] = tested on: N[C@@H](Cc1ccc(O)cc1)C(=O)O; test: Reconstitution of cytochrome P-450TYR activity in DLPC micelles; type: biochemical, Sorghum bicolor; conditions: pH 7.9, 30.0 °C
Source text: Reconstitution of the enzyme activity of a microsomal P-450 enzyme is accomplished by insertion of the cytochrome P-450 enzyme and the corresponding NADPH-cytochrome P-450 oxidoreductase into appropriate lipid micelles made from different commercially available lipids. Isolation of NADPH-cytochrome P-450 oxidoreductase is done according to Halkier and Moller, Plant Physiol. 96:10-17, 1990. A mixture of lipids can be used but with cytochrome P-450TYR di-lauroyl-phosphatidyl choline (DLPC) provides the best enzymatic activity. One rate limiting factor of this rate limiting reaction is the number of correctly formed complexes of cytochrome P-450TYR and NADPH-cytochrome P-450 oxidoreductase. Excess amounts of the oxidoreductase and concentrated enzyme solutions ensure a sufficient number of active complexes.
A reconstituted enzyme is obtained using the following components:
Cytochrome P-450TYR : 100 μg/ml in 50 mM potassium phosphate buffer pH 7,9
Oxidoreductase, purified from Sorghum bicolor: 100 μg/ml in 50 mM potassium phosphate buffer pH 7,9
Lipid: 10 mg/ml di-lauroyl-phosphatidyl choline, sonicated in 50 mM potassium phosphate buffer pH 7,9
^14 C-tyrosine: commercially available from Amersham; [U-^14 C]-L-tyrosine 0.5 μCi
10 μl of the lipid suspension is mixed in a glass vial with 50 μl of the cytochrome P-450TYR (0-1.5 pmol) solution. 50 μl of the oxidoreductase (0-0.15 U) solution is added and then 10 μl tyrosine solution and 10 μl NADPH solution are added and the mixture is sonicated in a Branson 5200 sonication bath for one minute. The reaction mixture is subsequently incubated for 1 hour at 30° C. At the end of the incubation period the reaction is stopped by transferring the glass vials onto ice. Radioactively labelled intermediates formed are extracted into 50 μl ehtyl acetate, applied to a silica coated TLC plate and developed using an ethyl acetate/toluene (1:5 v/v) mixture as mobile phase. The resultant product, p-hydroxyphenylacetaldehyde oxime is visualized by autoradiography of the TLC plate. Alternatively, the intermediates are analyzed by reverse-phase HPLC coupled to a Berthold radioactiviy monitor. The HPLC separation was carried out using a nucleosil 100-10C18 column isocratically eluted with 1,5% 2-propanol in 25 mM Hepes pH 7,9 (Halkier et al, J. Biol. Chem. 264:19487-19494, 1989). Control samples may be made by omitting either cytochrome P-450 oxidoreductase or NADPH.

T2 sequence (Q43135 other isoform, or with tags, fused parts or gaps): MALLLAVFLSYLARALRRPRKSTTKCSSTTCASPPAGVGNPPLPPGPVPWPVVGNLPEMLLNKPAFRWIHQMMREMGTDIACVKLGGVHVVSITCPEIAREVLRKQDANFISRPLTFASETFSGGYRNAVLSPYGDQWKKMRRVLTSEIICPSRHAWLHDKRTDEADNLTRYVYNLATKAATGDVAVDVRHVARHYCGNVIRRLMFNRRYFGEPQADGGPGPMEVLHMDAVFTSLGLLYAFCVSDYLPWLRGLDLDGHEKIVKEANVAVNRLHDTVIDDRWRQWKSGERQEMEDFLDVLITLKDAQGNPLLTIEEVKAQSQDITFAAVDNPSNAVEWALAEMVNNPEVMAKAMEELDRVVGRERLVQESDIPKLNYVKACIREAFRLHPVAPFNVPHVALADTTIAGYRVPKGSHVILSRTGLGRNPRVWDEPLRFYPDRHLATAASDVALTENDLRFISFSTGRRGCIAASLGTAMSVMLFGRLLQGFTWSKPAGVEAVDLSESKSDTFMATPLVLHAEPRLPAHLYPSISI

- initial A390-420 (cytochrome P-450TYR; 50 μl 20 mM N-hydroxytyrosine): 0,0689
- resulting A390-420 (cytochrome P-450TYR; 50 μl 20 mM N-hydroxytyrosine, dilution factor 550/500): 0,0758
- initial A390-420 (cytochrome P-450TYR; 120 μl 5 mM N-hydroxytyrosine): 0,0919
- resulting A390-420 (cytochrome P-450TYR; 120 μl 5 mM N-hydroxytyrosine, dilution factor 620/500): 0,1140
- initial A390-420 (cytochrome P-450TYR; 140 μl 5 mM N-hydroxytyrosine): 0,0911
- resulting A390-420 (cytochrome P-450TYR; 140 μl 5 mM N-hydroxytyrosine, dilution factor 640/500): 0,1166
- type of substrate binding spectrum (cytochrome P-450TYR; isolated sorghum P-450TYR): type I binding spectrum
- molar extinction coefficient E420-390 [1]: 64.6 cm⁻¹ mM⁻¹
Compound: O=C(O)[C@H](Cc1ccc(O)cc1)NO [N-hydroxytyrosine]

Compound: N#C[C@H](O[C@@H]1O[C@H](CO[C@@H]2O[C@H](CO)[C@@H](O)[C@H](O)[C@H]2O)[C@@H](O)[C@H](O)[C@H]1O)c1ccccc1 [amygdalin]
- lethality ([2]; WCRW larvae, 2 mg/ml, in the absence of BMS-callus): lethal
- lethality ([2]; WCRW larvae, concentrations of less than 1 mg/ml, BMS-callus absent): significantly less lethality
- LC50 ([2]; WCRW larvae, in the presence of BMS-callus, read-out: LC50): ~1000 µg/mL

Compound: N#C[C@@H](O[C@@H]1O[C@H](CO)[C@@H](O)[C@H](O)[C@H]1O)c1ccc(O)cc1 [dhurrin]
- LC50 [2]: 368 µg/mL (≈ 1180 µM)
- 95% confidence limits of LC50 ([2]; WCRW larvae): 0.28 to 0.48 µg/mL
- slope of the regression line ([2]; WCRW larvae): 2.5

Compound: CCO [ethanol]
- increase in glucosinolate production as compared to control experiments with water (glucosinolate production; 10 mM phenylalanine or 2% ethanol administered to the vermiculate, 24 hours, etiolated seedlings): threefold increase

Compound: CC/C=C\C[C@H]1C(=O)CC[C@@H]1CC(=O)O [jasmonic acid]
- induction of glucosinolate production (glucosinolate production; spraying with 100 μM, incubation 24 hours, etiolated seedlings and green leaves): fivefold induction

- type of substrate binding spectrum [1]: type Ispectrum
Compound: ON=CCc1ccc(O)cc1 [p-hydroxyphenylacetaldehyde oxime]

Compound: N#CCc1ccc(O)cc1 [p-hydroxyphenylacetonitrile]
- type of substrate binding spectrum [1]: type Ispectrum

Compound: Clc1ccc(N2N=NC3C4CC(C5N=NC45)C32)cc1 (centres unmarked) [tetcyclacis]
- effect on glucosinolate [3]: reduction of glucosinolate

Compound: cytochrome P-450TYR (Sorghum bicolor)
- Km ([4]; other: in the absence of added salt): 210 µM
- Km ([4]; other: in the presence of 15 mM NaCl): 140 µM

Compound: enilketoconazol
- effect on uptake of phenylalanine ([3]; measured by ethanol extraction of the plant material): without causing a reduction in the uptake of phenylalanine
- effect on glucosinolate [3]: reduction of glucosinolate
